Values after ≈ are worked out from the molar mass of the structure shown.
Key:
[1] = test system: Staphylococcus aureus (NCIM 5021); experiment: minimum inhibitory concentration by dilution method; assay type: cell-based; conditions: Staphylococcus aureus, NCIM5021; S. aureus; dilution method; average of three replicates; read-out: MIC
Procedure: (§1) The in vitro antimicrobial screening effects of the compounds (3 and 5a–j) were individually tested against a panel of bacteria and fungi including Staphylococcus aureus (NCIM 5021), Bacillus subtilis (NCIM 2999), Pseudomonas aeruginosa (NCIM 5029), Escherichia coli (NCIM 2574), Candida. albicans (NCIM 3471), and Aspergillus flavus (NCIM 524). Microbial strains were cultured overnight at 37°C in nutrient and potato dextrose agar medium. All the pure microbial strains were obtained from National Chemical Laboratory (NCL), Pune, India.
(§2) The minimum inhibitory concentration of the synthesized compounds was determined by dilution method. The compounds were dissolved and then diluted using DMSO; two-fold serial concentrations of the compounds were employed to determine the MIC. In this method, the test concentrations of chemically synthesized compounds were made from 5 to 125 μg/mL.

[2] = test system: Aspergillus flavus (NCIM 524); experiment: as above; assay type: cell-based; conditions: Aspergillus flavus, NCIM524; A. flavus; dilution method; average of three replicates; read-out: MIC
Procedure: as §1, §2

[3] = test system: Bacillus subtilis (NCIM 2999); experiment: as above; assay type: cell-based; conditions: Bacillus subtilis, NCIM2999; B. subtilis; dilution method; average of three replicates; read-out: MIC
Procedure: as §1, §2

[4] = test system: Pseudomonas aeruginosa (NCIM 5029); experiment: as above; assay type: cell-based; conditions: Pseudomonas aeruginosa, NCIM5029; P. aeruginosa; dilution method; average of three replicates; read-out: MIC
Procedure: as §1, §2

[5] = test system: Escherichia coli (NCIM 2574); experiment: as above; assay type: cell-based; conditions: Escherichia coli, NCIM2574; E. coli; dilution method; average of three replicates; read-out: MIC
Procedure: as §1, §2

A. niger [6] = experiment: as above; assay type: cell-based; conditions: Aspergillus niger; A. niger; dilution method; average of three replicates; read-out: MIC
Procedure: [The procedure below names another organism; the source lists this organism under the same test.] as §1, §2

[7] = test system: Staphylococcus aureus (NCIM 5021); experiment: agar disc diffusion, zone of inhibition; assay type: cell-based; conditions: Staphylococcus aureus, NCIM5021; S. aureus; discs 6 mm, test compounds 100 µg/mL in DMSO, standards 10 µg/disc; 37°C 24 h; average of three replicates; read-out: zone of inhibition
Procedure: as §1
(§3) The antibacterial activity of compounds was determined by agar disc diffusion method. Briefly, a suspension of tested bacterial strains was spread on the nutrient agar medium and potato dextrose agar for fungi. The discs (6 mm in diameter) impregnated with test chemicals each dissolved in concentration (100 μg/mL in DMSO) were placed on the inoculated agar and these plates were kept at 4°C for 2 h. The plate was incubated at 37°C for 24 h in case of bacteria and 48 h at 28°C in case of fungi. streptomycin (10 μg/disc) and fluconazole (10 μg/disc) were used as the standards for antibacterial and antifungal activity, respectively. All the samples were performed in triplicate and the zone of inhibition was measured in millimeters.

[8] = test system: Aspergillus flavus (NCIM 524); experiment: agar disc diffusion, zone of inhibition; assay type: cell-based; conditions: Aspergillus flavus, NCIM524; A. flavus; discs 6 mm, test compounds 100 µg/mL in DMSO, standards 10 µg/disc; 28°C 48 h; average of three replicates; read-out: zone of inhibition
Procedure: as §1, §3

[9] = test system: Bacillus subtilis (NCIM 2999); experiment: agar disc diffusion, zone of inhibition; assay type: cell-based; conditions: Bacillus subtilis, NCIM2999; B. subtilis; discs 6 mm, test compounds 100 µg/mL in DMSO, standards 10 µg/disc; 37°C 24 h; average of three replicates; read-out: zone of inhibition
Procedure: as §1, §3

[10] = test system: Pseudomonas aeruginosa (NCIM 5029); experiment: agar disc diffusion, zone of inhibition; assay type: cell-based; conditions: Pseudomonas aeruginosa, NCIM5029; P. aeruginosa; discs 6 mm, test compounds 100 µg/mL in DMSO, standards 10 µg/disc; 37°C 24 h; average of three replicates; read-out: zone of inhibition
Procedure: as §1, §3

[11] = test system: Escherichia coli (NCIM 2574); experiment: agar disc diffusion, zone of inhibition; assay type: cell-based; conditions: Escherichia coli, NCIM2574; E. coli; discs 6 mm, test compounds 100 µg/mL in DMSO, standards 10 µg/disc; 37°C 24 h; average of three replicates; read-out: zone of inhibition
Procedure: as §1, §3

A. niger [12] = experiment: agar disc diffusion, zone of inhibition; assay type: cell-based; conditions: Aspergillus niger; A. niger; discs 6 mm, test compounds 100 µg/mL in DMSO, standards 10 µg/disc; 28°C 48 h; average of three replicates; read-out: zone of inhibition
Procedure: [The procedure below names another organism; the source lists this organism under the same test.] as §1, §3

[13] = DPPH free radical scavenging activity; conditions: DPPH 0.1 mM, absorbance at 517 nm; triplicate, mean ± SD
Procedure: The capacity to scavenge the stable free radical 2,2-diphenyl-1-picrylhydrazyl (DPPH) was monitored according to the Blois method. The test samples (10–100 μL) were mixed with 1 mL of DPPH (0.1 mM) solution and filled up with methanol to a final volume of 4 mL. Absorbance of the resulting solution was measured at 517 nm in a visible spectrophotometer (Model 166, Systronics, India). The free radical scavenging rate of the reaction solution was calculated as a percentage (%) of DPPH decolouration using the equation (1) I(%)=(Ablank−Asample/Ablank)×100, where A blank is the absorbance of the control reaction mixture excluding the test compounds, and A sample is the absorbance of the test compounds. Radical scavenging potential was expressed as IC50 value, which represents the sample concentration at which 50% of the DPPH radicals were scavenged. Tests were carried out in triplicate and the results were expressed as mean values ± standard deviations.
DPPH radical scavenging activity evaluation is a standard assay in antioxidant activity studies and offers a rapid technique for screening the radical scavenging activity of specific compounds [24]. The free radical scavenging activity of newly synthesized compounds was tested by their ability to bleach the stable radical DPPH. The activity was monitored by following the absorption at 517 nm in a visible spectrophotometer. In the presence of any free radical scavenger, this odd electron pairs up and causes the diminishing of absorption band which is proportional to the number of electrons taken up. The activity was studied at different concentrations for each compound. […] Resulting from a color change from purple to yellow the absorbance decreased when the antioxidant molecule can quench DPPH free radical through donation of hydrogen atom or by electron donating to form a stable DPPH molecule.

[14] = superoxide radical scavenging assay (NBT, xanthine-xanthine oxidase system); assay type: biochemical; conditions: NBT reduction, pH 7.8, 560 nm, three replicates
Procedure: Superoxide radical scavenging activity was measured as described by Kovala-Demertzi et al., (2004). The assay is based on the reduction of nitroblue tetrazolium (NBT) by superoxide ions generated by the xanthine-xanthine oxidase system (X–XO). The reaction system contained 0.2 mM xanthine and 0.6 mM NBT in 0.1 M phosphate buffer, pH 7.8. The tested compounds were dissolved in methanol. The reaction was started by addition of XO (0.07 U mL^−1), an activity which allowed to yield the absorbance change between 0.03 and 0.04 per minute, at 560 nm. The extent of NBT reduction was followed spectrophotometrically, by measuring the increase of the absorbance at 560 nm. All the experiments were replicated three times. The IC50 of each compound was defined as the concentration which inhibited 50% of the NBT reduction by O2 ^•− produced in the X–XO system.
Superoxide anion radical is normally initially formed, and its effects can be magnified because it produces other kinds of free radicals and oxidizing agents. The enzymatic superoxide anion radical was generated by the xanthine/xanthine oxidase reaction system. The production of superoxide was estimated by the nitroblue tetrazolium method. […] Differently, in the m-position, methoxy and hydroxyl groups act as an electron-withdrawing properties, ([…]), which are possible for providing a destabilizing effect.

- MIC [1]: 50 µg/mL (≈ 126 µM)
- MIC [2]: 25 µg/mL (≈ 63.1 µM)
- MIC [3]: 30 µg/mL (≈ 75.7 µM)
- MIC [4]: 30 µg/mL (≈ 75.7 µM)
- MIC [5]: 50 µg/mL (≈ 126 µM)
- MIC (A. niger [6]): 25 µg/mL (≈ 63.1 µM)
- melting point: 193 °C
- IC50 DPPH [13]: 85.3 ± 0.14 µg/mL (≈ 215 µM)
- IC50 Superoxide [14]: 92.0 ± 0.35 µg/mL (≈ 232 µM)
Compound: CC(=O)N(C(=O)Cc1ccccc1)c1ccc(N=Cc2cc3ccccc3o2)cc1 [Compound 5b, N-acetyl-N-(4-((benzofuran-2-ylmethylene)amino)phenyl)-2-phenylacetamide]
- zone of inhibition at 100 µg/mL [7]: 10 mm
- zone of inhibition at 100 µg/mL [8]: 15 mm
- zone of inhibition at 100 µg/mL [9]: 10 mm
- zone of inhibition at 100 µg/mL [10]: 11 mm
- zone of inhibition at 100 µg/mL [11]: 10 mm
- zone of inhibition at 100 µg/mL (A. niger [12]): 12 mm
